Source: patent US8999956B2, “N-[(het)arylalkyl)] pyrazole(thio)carboxamides and their heterosubstituted analogues” (Bayer Intellectual Property GmbH, priority 2010, dated 2015)
Like-named read-outs stand apart in the source and are kept apart here.

Legend:
Septoria tritici = assay: In vivo preventive test on Septoria tritici (wheat); settings: 500 ppm of active ingredient, evaluated 21 days after inoculation
In short: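 Compound formulated in N,N-dimethylacetamide with alkylaryl polyglycol ether emulsifier and diluted in water to the stated rate. Young wheat plants sprayed preventively; after the deposit dried, they were inoculated with a Septoria tritici spore suspension.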

Pyricularia oryzae = settings: in vivo
[1] = system: Fusarium nivale (var. majus); assay: In vivo preventive test on Fusarium nivale (wheat); settings: 500 ppm of active ingredient, evaluated 5 days after inoculation
Method: (§1) Solvent: 49 parts by weight of N,N-dimethylacetamide Emulsifier: 1 part by weight of alkylaryl polyglycol ether To produce a suitable preparation of active compound, 1 part by weight of active compound or active compound combination is mixed with the stated amounts of solvent and emulsifier, and the concentrate is diluted with water to the desired concentration. To test for preventive activity, young plants are sprayed with the preparation of active compound or active compound combination at the stated rate of application. After the spray coating has been dried, the plants are slightly injured by using a sandblast and afterwards they are sprayed with a conidia suspension of Fusarium nivale (var. majus).

Alternaria solani = assay: In vivo preventive test on Alternaria solani (tomato); settings: 500 ppm of active ingredient, evaluated 7 days after inoculation
In short: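 Young tomato plants sprayed preventively with compound in DMF/alkylarylpolyglycolether emulsion diluted in water to the stated rate. Inoculation with aqueous Alternaria solani spore suspension one day after treatment.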

Pyrenophora teres = assay: In vivo preventive test on Pyrenophora teres (barley); settings: 500 ppm of active ingredient, evaluated 7-9 days after inoculation
In short: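 Compound formulated in N,N-dimethylformamide with alkylaryl polyglycol ether emulsifier and diluted in water, then sprayed on young barley plants at the stated application rate. Plants inoculated one day later with aqueous Pyrenophora teres spore suspension, testing preventive protection.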

[2] = system: aflatoxines produced by Aspergillus parasiticus; assay: microbe, parasite or virus in culture; type: cell-based
Aspergillus parasiticus = assay: microbe, parasite or virus in culture; type: cell-based
Puccinia triticina = assay: In vivo preventive test on Puccinia triticina (wheat)
[3] = log P by HPLC on reversed-phase column (EEC Directive 79/831 Annex V.A8); type: physicochemical
Method: In table 1, the log P values were determined in accordance with EEC Directive 79/831 Annex V.A8 by HPLC (High Performance Liquid Chromatography) on a reversed-phase column (C18), using the method described below: Temperature: 40° C.; […]

Cochliobolus miyabeanus = assay: In vivo protective test on Cochliobolus miyabeanus (rice); settings: Table M, 250 ppm of active ingredient, evaluated 4 days after inoculation
Sphaerotheca fuliginea = assay: In vivo preventive test on Sphaerotheca fuliginea (cucumber); settings: 500 ppm of active ingredient, evaluated 7 days after inoculation
In short: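 Young cucumber plants sprayed with compound (in DMF with alkylarylpolyglycolether emulsifier, diluted in water) at the stated application rate. Inoculated one day later with aqueous Sphaerotheca fuliginea spore suspension. Plants then held in greenhouse at approximately 23° C and approximately 70% relative humidity.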

[4] = system: Blumeria graminis fsp. hordei; assay: In vivo preventive test on Blumeria graminis (barley); settings: 500 ppm of active ingredient, evaluated 7 days after inoculation
Method: as §1, with “dusted” for “slightly injured by using a sandblast and afterwards they are sprayed”, “spores” for “a conidia suspension”, “Blumeria graminis fsp. hordei.” for “Fusarium nivale (var. majus).”

Leptosphaeria nodorum = assay: In vivo preventive test on Leptosphaeria nodorum (wheat); settings: 500 ppm of active ingredient, evaluated 7-9 days after inoculation
In short: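 Compound formulated in N,N-dimethylacetamide with alkylaryl polyglycol ether emulsifier and diluted with water. Young wheat plants were sprayed at the stated application rate, then inoculated one day later with an aqueous spore suspension of L. nodorum.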

Phakopsora pachyrhizi = assay: In vivo protective test on Phakopsora pachyrhizi (soybeans); settings: Table N, 250 ppm of active ingredient, evaluated 11 days after inoculation
Botrytis cinerea = assay: In vivo preventive test on Botrytis cinerea (beans)
In short: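 Young bean plants sprayed preventively with compound in acetone/dimethylacetamide/emulsifier diluted in water; after drying, each leaf inoculated with 2 agar pieces bearing Botrytis cinerea. Kept dark at 20° C, 100% humidity; lesion size scored at 2 days as % efficacy (0% = untreated, 100% = no disease).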

Venturia inaequalis = assay: In vivo preventive test on Venturia inaequalis (apple scab); settings: 100 ppm of active ingredient, evaluated 10 days after inoculation
In short: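 Young plants sprayed preventively at the stated application rate with compound dissolved in acetone/N,N-dimethylacetamide plus alkylaryl polyglycol ether emulsifier and diluted with water to the desired concentration.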

Uromyces appendiculatus = assay: In vivo preventive test on Uromyces appendiculatus (beans); settings: 100 ppm of active ingredient, evaluated 10 days after inoculation
Method: Solvent: 24.5 parts by weight of acetone • 24.5 parts by weight of N,N-dimethylacetamide Emulsifier: 1 part by weight of alkylaryl polyglycol ether To produce a suitable preparation of active compound, 1 part by weight of active compound is mixed with the stated amounts of solvent and emulsifier, and the concentrate is diluted with water to the desired concentration. To test for preventive activity, young plants are sprayed with the preparation of active compound at the stated rate of application.

[5] = Table K, 500 ppm of active ingredient, evaluated 8 days after inoculation
[6] = 500 ppm of active ingredient, lesion size 2 days after inoculation
[7] = Table L, 500 ppm of active ingredient, lesion size 2 days after inoculation

SMILES	Efficacy (Septoria tritici) [%]	Efficacy (Pyricularia oryzae) [%]	Efficacy [1] [%]	Efficacy (Alternaria solani) [%]	Efficacy (Pyrenophora teres) [%]	% Inhibition of Aflatoxin at 50 μM [2] [%]	Efficacy (Puccinia triticina; [5]) [%]	logP [3]	Efficacy (Cochliobolus miyabeanus) [%]	Efficacy (Sphaerotheca fuliginea) [%]	Efficacy [4] [%]	% Inhibition of fungal growth at 50 μM (Aspergillus parasiticus) [%]	Efficacy (Leptosphaeria nodorum) [%]	Efficacy (Phakopsora pachyrhizi) [%]	Efficacy (Botrytis cinerea; [7]) [%]	Efficacy (Venturia inaequalis) [%]	Efficacy (Uromyces appendiculatus) [%]	other results
CCCCC1CCCCC1NC(=O)c1c(C(F)F)nn(C)c1F (single isomer, unassigned) [Example 330]	78	80	100	95	100	100	80	4.06 isomer B	85	88	100	–	–	–	–	–	–	% Inhibition of fungal growth at 50 μM (Aspergillus parasiticus; 50 µM): 87%
CC(CCc1c(Cl)cc(Cl)cc1Cl)NC(=O)c1c(C(F)F)nn(C)c1Cl (stereo not shown) [Example 216]	100	95	93	–	100	100	78	4.53	90	100	–	100	–	–	–	–	–	–
Cn1nc(C(F)F)c(C(=O)N(CC2CCCCC2c2ccccc2)C2CC2)c1F (stereo not shown) [Example 240]	100	–	71	100	100	100	95	4.31	–	–	100	98	70	85	95	100	100	Efficacy (Botrytis cinerea; [6]): at least 95%; Efficacy (Botrytis cinerea; Table L2, dose 500 ppm, comparison with des-fluoro analogues): 95%
Cn1nc(C(F)F)c(C(=O)N(CC2CCCCC2c2ccccc2Cl)C2CC2)c1F (stereo not shown) [Example 241]	100	–	–	100	100	100	100	4.67	–	100	–	97	80	99	99	100	100	–
Cn1nc(C(F)F)c(C(=O)NC2CCCCC2CC[Si](C)(C)C)c1F (stereo not shown) [Example 353]	80	–	100	95	95	99	70	4.70	–	–	90	85	–	85	–	99	–	–
Cn1nc(C(F)F)c(C(=O)N(CC2CCCCC2c2ccc(Cl)cc2Cl)C2CC2)c1F (stereo not shown) [Example 242]	–	–	–	100	100	100	100	5.31	–	100	–	100	–	99	95	100	100	–
CON(C(=O)c1c(C(F)F)nn(C)c1F)C(C)CCc1c(Cl)cc(Cl)cc1Cl (stereo not shown) [Example 217]	100	97	100	–	100	100	89	4.77	98	100	100	100	78	–	–	100	–	–
CC(C)CCC1CCCCC1NC(=O)c1c(C(F)F)nn(C)c1F (stereo not shown) [Example 333]	100	–	100	100	100	100	90	4.22	–	100	100	92	80	97	–	99	–	–
CC(C)CC(C)C1CCCCC1NC(=O)c1c(C(F)F)nn(C)c1Cl (single isomer, unassigned) [Example 334]	100	–	93	–	–	100	–	4.75 isomer A	–	–	90	–	–	100	–	100	100	% Inhibition of fungal growth at 50 μM (Aspergillus parasiticus; 50 µM): 90%
CC(CCc1c(Cl)cc(Cl)cc1Cl)NC(=O)c1c(C(F)F)nn(C)c1F (stereo not shown) [Example 215]	90	98	71	95	100	100	–	4.29	98	100	100	100	–	–	–	–	–	–
CCCC1CCCCC1NC(=O)c1c(C(F)F)nn(C)c1F (single isomer, unassigned) [Example 344]	94	95	100	100	100	100	100	3.61 isomer B	95	100	100	–	90	–	100	–	–	% Inhibition of fungal growth at 50 μM (Aspergillus parasiticus; 50 µM): 89%
Cn1nc(C(F)F)c(C(=O)NC2CCCCC2CCC(C)(C)C)c1F (single isomer, unassigned) [Example 358]	80	–	100	100	100	–	100	4.51 isomer B	–	100	100	–	–	95	–	100	–	–
Cn1nc(C(F)F)c(C(=O)N(C2CC2)C2CCCC(c3ccccc3)C2)c1F (stereo not shown) [Example 256]	100	–	100	93	100	96	95	4.01	–	–	–	79	95	85	93	100	100	Efficacy (Puccinia triticina; 500 ppm of active ingredient, evaluated 8 days after inoculation): at least 95%; Efficacy (Puccinia triticina; Table K5, dose 500 ppm, comparison with des-fluoro analogues): 95%; Efficacy (Botrytis cinerea; [6]): at least 90%; Efficacy (Botrytis cinerea; Table L5, dose 500 ppm, comparison with des-fluoro analogues): 93%
